Assay results from patent publication US20260125370A1, “SULFOXIMINE COMPOUNDS AS HISTONE DEACETYLASE 6 INHIBITOR, AND PHARMACEUTICAL COMPOSITION COMPRISING THE SAME” (CHONG KUN DANG PHARMACEUTICAL CORP., priority 2022, published 2026).

What was measured:
human recombinant HDAC6 = biological target: T1, human recombinant HDAC6 (Homo sapiens, UniProt Q9UBN7); assay: HDAC6 enzyme activity inhibition (fluorimetric, in vitro); assay type: biochemical; details: samples at 0.1, 1, 10, 100 and 1000 nM
T1 construct: purchased Calbiochem 382180
T1 sequence (Q9UBN7 1-1215): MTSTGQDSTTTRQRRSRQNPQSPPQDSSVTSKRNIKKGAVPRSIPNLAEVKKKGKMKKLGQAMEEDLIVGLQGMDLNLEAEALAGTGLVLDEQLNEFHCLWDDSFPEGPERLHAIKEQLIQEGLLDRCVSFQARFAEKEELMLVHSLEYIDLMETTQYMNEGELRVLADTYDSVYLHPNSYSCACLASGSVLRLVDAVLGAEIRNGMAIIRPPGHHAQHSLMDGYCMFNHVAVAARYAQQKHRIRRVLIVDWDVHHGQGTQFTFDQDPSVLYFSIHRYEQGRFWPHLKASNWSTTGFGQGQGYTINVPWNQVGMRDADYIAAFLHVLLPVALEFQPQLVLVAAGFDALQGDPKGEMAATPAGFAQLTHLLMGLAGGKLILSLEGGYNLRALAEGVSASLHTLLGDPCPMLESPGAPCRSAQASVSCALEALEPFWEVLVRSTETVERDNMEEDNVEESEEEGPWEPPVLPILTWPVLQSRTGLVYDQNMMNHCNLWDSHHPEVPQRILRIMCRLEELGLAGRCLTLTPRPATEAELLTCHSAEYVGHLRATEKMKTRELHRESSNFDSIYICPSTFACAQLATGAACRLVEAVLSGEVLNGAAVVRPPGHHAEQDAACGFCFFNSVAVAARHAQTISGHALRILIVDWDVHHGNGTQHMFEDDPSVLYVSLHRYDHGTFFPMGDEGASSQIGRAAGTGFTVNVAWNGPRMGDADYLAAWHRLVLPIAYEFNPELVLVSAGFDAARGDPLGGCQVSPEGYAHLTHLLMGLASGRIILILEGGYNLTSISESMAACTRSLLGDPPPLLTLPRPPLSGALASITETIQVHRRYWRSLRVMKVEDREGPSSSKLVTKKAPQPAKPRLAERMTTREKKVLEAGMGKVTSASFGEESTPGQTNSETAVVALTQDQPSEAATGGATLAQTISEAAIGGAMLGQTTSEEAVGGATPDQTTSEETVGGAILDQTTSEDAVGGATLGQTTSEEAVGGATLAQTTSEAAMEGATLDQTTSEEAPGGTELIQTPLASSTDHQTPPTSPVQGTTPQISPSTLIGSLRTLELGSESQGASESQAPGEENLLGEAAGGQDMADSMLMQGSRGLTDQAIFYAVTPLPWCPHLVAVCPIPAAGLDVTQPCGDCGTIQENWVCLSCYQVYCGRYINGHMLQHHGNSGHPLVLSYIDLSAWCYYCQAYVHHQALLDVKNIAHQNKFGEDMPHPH
Experimental: (§1) A HDAC enzyme inhibitory capacity of a test material was measured by using HDAC1 Fluorimetric Drug Discovery Assay Kit (Enzolifesciences: BML-AK511) and HDAC6 human recombinant (Calbiochem: 382180). For a HDAC1 assay, samples were treated at a concentration of 100, 1000 and 10000 nM. For a HDAC6 assay, samples were treated at a concentration of 0.1, 1, 10, 100 and 1000 nM.
(§2) For the test on the HDAC1 enzyme activity, human recombinant HDAC1 (BML-SE456) was used as a zymogen and Fluor de Lys®-SIRT1 (BNL-KI177) was used as a substrate. A 5-fold dilution of the compound was divided into a 96-well plate, after which 0.3 μg of the enzyme and […] of the substrate were inserted into each well and subjected to reaction at 37° C. for 60 minutes, such that Fluor de Lys® Developer II (BML-K1176) was inserted thereinto and subjected to reaction for 30 minutes and finished. After that, a fluorescence value (Ex 360, Em 460) was measured with a multi-plate reader (FlexStation 3, Molecular Device). An experiment on HDAC6 enzyme was conducted in accordance with the same protocol as in the HDAC1 enzyme activity test method by using human recombinant HDAC6 (382180) of Calbiochem Inc. For final result values, each IC50 value was calculated with GraphPad Prism 4.0 program.

human recombinant HDAC1 = biological target: T2, human recombinant HDAC1 (Homo sapiens, UniProt Q13547); assay: HDAC1 enzyme activity inhibition (HDAC1 Fluorimetric Drug Discovery Assay Kit, in vitro); assay type: biochemical; details: samples at 100, 1000 and 10000 nM
T2 construct: purchased Enzolifesciences BML-SE456
T2 sequence (Q13547 whole entry): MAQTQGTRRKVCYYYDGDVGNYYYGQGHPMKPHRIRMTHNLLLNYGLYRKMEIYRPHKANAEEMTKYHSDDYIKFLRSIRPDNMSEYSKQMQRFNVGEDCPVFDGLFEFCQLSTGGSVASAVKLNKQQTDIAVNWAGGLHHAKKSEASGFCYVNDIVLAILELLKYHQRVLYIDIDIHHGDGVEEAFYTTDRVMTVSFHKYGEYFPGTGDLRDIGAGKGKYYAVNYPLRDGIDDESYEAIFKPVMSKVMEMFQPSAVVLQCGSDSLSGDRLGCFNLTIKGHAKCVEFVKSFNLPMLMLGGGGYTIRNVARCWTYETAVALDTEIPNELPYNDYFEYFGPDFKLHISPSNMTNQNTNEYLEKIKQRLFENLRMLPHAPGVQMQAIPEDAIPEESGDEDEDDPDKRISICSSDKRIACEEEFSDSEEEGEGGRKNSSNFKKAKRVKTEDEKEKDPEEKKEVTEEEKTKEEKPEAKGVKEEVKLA
Experimental: as §1, §2

Row | IC50 (human recombinant HDAC6) [nM] | IC50 (human recombinant HDAC1) [nM] | Structure (SMILES)
1 | 50 | > 10000 | N=S1(=O)CCN(C(=O)N(Cc2ccc(-c3nnc(C(F)F)o3)cc2F)c2ccc(F)c(F)c2)CC1 [Compound 6, N-(4-(5-(difluoromethyl)-1,3,4-oxadiazol-2-yl)-2-fluorobenzyl)-N-(3,4-difluorophenyl)-1-iminothiomorpholin-4-carboxamide 1-oxide]
2 | 28.9 | > 10000 | N=S1(=O)CCN(C(=O)N(Cc2ccc(-c3nnc(C(F)F)o3)cc2F)c2cccc(Br)c2)CC1 [Compound 41, N-(3-bromophenyl)-N-(4-(5-(difluoromethyl)-1,3,4-oxadiazol-2-yl)-2-fluorobenzyl)-1-iminothiomorpholin-4-carboxamide 1-oxide]
3 | 50.2 | > 10000 | N=S1(=O)CCN(S(=O)(=O)N(Cc2ncc(-c3nnc(C(F)F)o3)s2)c2ccccc2)CC1 [Compound 86, N-[[5-[5-(difluoromethyl)-1,3,4-oxadiazol-2-yl]thiazol-2-yl]methyl]-1-imino-1-oxo-N-phenyl-1,4-thiazinan-4-sulfonamide]
4 | 99.6 | > 10000 | N=S1(=O)CCN(C(=O)N(Cc2ccc(-c3nnc(C(F)F)o3)cc2F)c2ccc(F)cc2)CC1 [Compound 63, N-[[4-[5-(difluoromethyl)-1,3,4-oxadiazol-2-yl]-2-fluoro-phenyl]methyl]-N-(4-fluorophenyl)-1-imino-1-oxo-1,4-thiazinan-4-carboxamide]
5 | 63.6 | > 10000 | N=S1(=O)CCN(CCS(=O)(=O)N(Cc2ccc(-c3nnc(C(F)F)o3)cc2F)c2ccccc2)CC1 [Compound 74, N-[[4-[5-(difluoromethyl)-1,3,4-oxadiazol-2-yl]-2-fluoro-phenyl]methyl]-2-(1-imino-1-oxo-1,4-thiazinan-4-yl)-N-phenyl-ethanesulfonamide]
6 | 37.7 | > 10000 | N=S1(=O)CCN(C(=O)N(Cc2ccc(-c3nnc(C(F)F)o3)cc2F)c2ccc(Cl)c(Cl)c2)CC1 [Compound 42, N-(3,4-dichlorophenyl)-N-(4-(5-(difluoromethyl)-1,3,4-oxadiazol-2-yl)-2-fluorobenzyl)-1-iminothiomorpholin-4-carboxamide 1-oxide]
7 | 390 | > 10000 | O=C(N=S1(=O)CCN(C(=O)N(Cc2ccc(-c3nnc(C(F)F)o3)cc2F)c2ccccc2)CC1)OCc1ccccc1 [Compound 4, Benzyl (4-((4-(5-(difluoromethyl)-1,3,4-oxadiazol-2-yl)-2-fluorobenzyl)(phenyl)carbamoyl)-1-oxidothiomorpholin-1-ylidene)carbamate]
8 | 347 | > 10000 | CC(=O)N1CCC(c2ccc(N(Cc3ccc(-c4nnc(C(F)F)o4)cc3F)C(=O)N3CCS(=N)(=O)CC3)cc2)CC1 [Compound 67]
9 | 256 | > 10000 | O=C(NC1CCS(=O)(=NC(=O)C(F)(F)F)CC1)N(Cc1ccc(-c2nnc(C(F)F)o2)cc1F)c1ccccc1 (stereo not shown) [Compound 58, N-(4-(3-(4-(5-(difluoromethyl)-1,3,4-oxadiazol-2-yl)-2-fluorobenzyl)-3-phenylureido)-1-oxidotetrahydro-2H-thiopyran-1-yliden)-2,2,2-trifluoroacetamide]
10 | 168 | > 10000 | O=C(N1CCS(=O)(=NC(=O)C(F)(F)F)CC1)N(Cc1ccc(-c2nnc(C(F)F)o2)cn1)c1ccccc1 [Compound 2, N-((5-(5-(difluoromethyl)-1,3,4-oxadiazol-2-yl)pyridin-2-yl)methyl)-N-phenyl-1-((2,2,2-trifluoroacetyl)imino)thiomorpholin-4-carboxamide 1-oxide]
11 | 93.1 | > 10000 | CC1CN(C(=O)N(Cc2ccc(-c3nnc(C(F)F)o3)cc2F)c2ccccc2)CCS1(=N)=O (stereo not shown) [Compound 82, N-[[4-[5-(difluoromethyl)-1,3,4-oxadiazol-2-yl]-2-fluoro-phenyl]methyl]-1-imino-2-methyl-1-oxo-N-phenyl-1,4-thiazinan-4-carboxamide]
12 | 66.4 | > 10000 | N=S1(=O)CCN(C(=O)N(Cc2ncc(-c3nnc(C(F)F)o3)cc2F)c2ccc(Cl)cc2Cl)CC1 [Compound 50, N-(2,4-dichlorophenyl)-N-((5-(5-(difluoromethyl)-1,3,4-oxadiazol-2-y1)-3-fluoropyridin-2-yl)methyl)-1-iminothiomorpholin-4-carboxamide 1-oxide]
13 | 116 | > 10000 | N=S1(=O)CCC(NC(=O)N(Cc2ccc(-c3nnc(C(F)F)o3)cc2F)c2ccccc2)CC1 (stereo not shown) [Compound 59, 1-(4-(5-(difluoromethyl)-1,3,4-oxadiazol-2-yl)-2-fluorobenzyl)-3-(1-imino-1-oxidotetrahydro-2H-thiopyran-4-yl)-1-phenylurea]
14 | 90.2 | > 10000 | N=S1(=O)CCN(C(=O)N(Cc2ccc(-c3nnc(C(F)F)o3)cc2F)c2cccnc2)CC1 [Compound 66, N-[[4-[5-(difluoromethyl)-1,3,4-oxadiazol-2-yl]-2-fluoro-phenyl]methyl]-1-imino-1-oxo-N-(3-pyridyl)-1,4-thiazinan-4-carboxamide]
15 | 56 | > 10000 | N=S1(=O)CC(N2C[C@@H]3C[C@H]2CN3C(=O)N(Cc2ccc(-c3nnc(C(F)F)o3)cn2)c2ccccc2)C1 (stereo partly drawn) [Compound 84, (1S,4S)—N-[[5-[5-(difluoromethyl)-1,3,4-oxadiazol-2-yl]-2-pyridyl]methyl]-5-(1-imino-1-oxo-thiethan-3-yl)-N-phenyl-2,5-diazabicyclo[2.2.1]heptan-2-carboxamide]
16 | 59.7 | > 10000 | N=S1(=O)CCN(S(=O)(=O)N(Cc2ccc(-c3nnc(C(F)F)o3)cc2F)c2cccc(F)c2)CC1 [Compound 35, N-(4-(5-(difluoromethyl)-1,3,4-oxadiazol-2-yl)-2-fluorobenzyl)-N-(3-fluorophenyl)-1-iminothiomorpholin-4-sulfonamide 1-oxide]
17 | 77.7 | > 10000 | N=S1(=O)CCN(C(=O)N(Cc2ccc(-c3nnc(C(F)F)o3)cn2)c2ccc(Cl)cc2Cl)CC1 [Compound 49, N-(2,4-dichlorophenyl)-N-((5-(5-(difluoromethyl)-1,3,4-oxadiazol-2-yl)pyridin-2-yl)methyl)-1-iminothiomorpholin-4-carboxamide 1-oxide]
18 | 49.4 | > 10000 | N=S1(=O)CCN(C(=O)N(Cc2ccc(-c3nnc(C(F)F)o3)cc2F)c2ccccc2)CC1 [Compound 1, N-(4-(5-(difluoromethyl)-1,3,4-oxadiazol-2-yl)-2-fluorobenzyl)-1-imino-N-phenylthiomorpholin-4-carboxamide 1-oxide]
19 | 87.1 | > 10000 | O=C(N=S1(=O)CCN(C(=O)N(Cc2ccc(-c3nnc(C(F)F)o3)nn2)c2cccc(F)c2)CC1)OCc1ccccc1 [Compound 79, Benzyl N-[4-[[6-[5-(difluoromethyl)-1,3,4-oxadiazol-2-yl]pyridazin-3-yl]methyl-(3-fluorophenyl)carbamoyl]-1-oxo-1,4-thiazinan-1-ylidene]carbamate]
20 | 63.6 | > 10000 | N=S1(=O)CCN(C(=O)N(Cc2ccc(-c3nnc(C(F)F)o3)cn2)c2cc(F)ccc2F)CC1 [Compound 45, N-((5-(5-(difluoromethyl)-1,3,4-oxadiazol-2-yl)pyridin-2-yl)methyl)-N-(2,5-difluorophenyl)-1-iminothiomorpholin-4-carboxamide 1-oxide]
